From US20110039762A1, “TARGETED ANTIMICROBIAL MOIETIES” (C3 JIAN, INC., priority 2009, published 2011)
“Also recorded” adds a separate entry of the source.

system: microorganisms (e.g., bacteria, yeasts, fungi); assay: Targeting peptide binding to target microorganisms (Table 3); details: microorganism the targeting peptide binds; binding in aqueous buffers varied by peptide solubility, preferably 1x PBS

Substance	Target(s)
1T-139 (AVAGAAVGALLGNDARSTAVGAAIGGALGAGAGELTKNK; Peptide with targeting and/or antimicrobial activity) [Peptide 1T-139]	A. naeslundii; also recorded: S. gordonii; also recorded: S. mitis; also recorded: S. mutans; also recorded: S. oralis
1T-36 (VYRHLRFIDGKLVEIRLERK; Peptide with targeting and/or antimicrobial activity) [Peptide 1T-36]	S. aureus; also recorded: S. epidermidis; also recorded: C. jeikeium; also recorded: C. xerosis; also recorded: C. striatum; also recorded: P. aeruginosa
1T-57 (RLEYRRLETQVEENPESGRRPMRG; Peptide with targeting and/or antimicrobial activity) [Peptide 1T-57]	P. aeruginosa
PF-062 (MKKKRINNDILGRMIYSSSIDKRNLYNLKYYE; Peptide with targeting and/or antimicrobial activity)	S. epidermidis and M. luteus and E. coli and P. aeruginosa and MRSA and S. pneumoniae and E. faecalis and C. jeikeium
1T-62 (GCKGCAQRDPCAEPEPYFRLR; Peptide with targeting and/or antimicrobial activity) [Peptide 1T-62]	S. epidermidis; also recorded: P. aeruginosa
PF-054 (VSISRFIGGGHVFNGNNKRNL; Peptide with targeting and/or antimicrobial activity)	S. epidermidis; also recorded: E. coli
1T-80 (GGNLGPGFGVIIP; Peptide with targeting and/or antimicrobial activity) [Peptide 1T-80]	S. pneumoniae
1T-31 (NATGTDIGEVTLTLGRFS; Peptide with targeting and/or antimicrobial activity) [Peptide 1T-31]	S. mutans; also recorded: P. aeruginosa
1T-266 (RAGTWLVVDEIR; Peptide with targeting and/or antimicrobial activity) [Peptide 1T-266]	S. sanguinis
1T-119 (SPATQKAPTRAQPSRAPVQDCGDGRPTAAPDDVERLSPR; Peptide with targeting and/or antimicrobial activity) [Peptide 1T-119]	S. gordonii; also recorded: S. mitis; also recorded: S. mutans; also recorded: S. oralis
1T-177 (GTNVPTQILGYSREERFDYEPAPEQR; Peptide with targeting and/or antimicrobial activity) [Peptide 1T-177]	P. gingivalis; also recorded: S. gordonii; also recorded: S. mitis; also recorded: S. mutans; also recorded: S. oralis; also recorded: S. salivarious; also recorded: S. sanguinis
1T-248 (IGGALNSCG; Peptide with targeting and/or antimicrobial activity) [Peptide 1T-248]	S. sanguinis
1T-30 (GKAKPYQVRQVLRAVDKLETRRKKGGR; Peptide with targeting and/or antimicrobial activity) [Peptide 1T-30]	S. aureus; also recorded: S. epidermidis; also recorded: C. xerosis; also recorded: C. striatum; also recorded: P. aeruginosa
1T-99 (MKAWLGQ; Peptide with targeting and/or antimicrobial activity) [Peptide 1T-99]	S. gordonii; also recorded: S. mitis; also recorded: S. mutans; also recorded: S. oralis; also recorded: S. sanguinis
1T-249 (VFSVLKHTTWPTRKQSWHDFISILEYSAFFALVIFIFDKLLTLGLAELLKRF; Peptide with targeting and/or antimicrobial activity) [Peptide 1T-249]	F. nucleatum; also recorded: S. sanguinis

same assay, conditions: microorganism(s) the targeting peptide binds; binding in aqueous buffers depending on peptide solubility, preferably 1x PBS

Substance	Target(s)
PF-207 (AAGCRDLGSLSSLVTNPS; Peptide with targeting and/or antimicrobial activity)	M. luteus; also recorded: C. jeikeium
PF-275 (LVSGVANTVKNTAHTVGNTAKHAGHVAADTTVKATKKQQVK; Peptide with targeting and/or antimicrobial activity)	S. mutans
PF-172 (LTGVRRPWRAPWAGTSGWALR; Peptide with targeting and/or antimicrobial activity)	S. epidermidis and M. luteus and E. coli and P. aeruginosa and MRSA and E. faecalis and C. jejuni
PF-372 (KKQDKRIEDKYKRMKKGD; Peptide with targeting and/or antimicrobial activity)	C. jeikeium; also recorded: C. jejuni
PF-142 (GIDRGCQAAR; Peptide with targeting and/or antimicrobial activity)	S. mutans
PF-365 (LYKQKIQLEEELEKLKDDRQ; Peptide with targeting and/or antimicrobial activity)	S. epidermidis; also recorded: B. subtilis; also recorded: B. fragilis; also recorded: P. aeruginosa; also recorded: C. albicans
PF-177 (VTSEPGIAHDIRLLPRAAAFR; Peptide with targeting and/or antimicrobial activity)	M. luteus and MRSA and E. faecalis and C. jeikeium
PF-162 (GIRRLHSVENLNREISHRMAGLR; Peptide with targeting and/or antimicrobial activity)	S. epidermidis and MRSA

same assay, conditions: microorganism(s) the targeting peptide binds; peptide binding conducted in aqueous buffers varied by peptide solubility, preferably 1x PBS

Substance	Target(s)
PF-435 (MSRWDGHSDKGEAPAGKPPMHGFGLNGENK; Peptide with targeting and/or antimicrobial activity)	C. jeikeium
PF-493 (PGAFFFCRGRGCWCGIGW; Peptide with targeting and/or antimicrobial activity)	S. mutans; also recorded: B. subtilis; also recorded: E. coli
PF-494 (FTEPLRPLQAKGQIISIKPSTSSS; Peptide with targeting and/or antimicrobial activity)	S. mutans
PF-504 (ILSVELSTKTSASGS; Peptide with targeting and/or antimicrobial activity)	S. mutans; also recorded: E. coli

same assay, conditions: peptide binding in aqueous buffers varied by peptide solubility; preferably 1x PBS

Substance	Target(s) (microorganisms bound by the targeting peptide)
PF-791 (IFLTTQNTDYSEHNAA; Peptide with targeting and/or antimicrobial activity)	S. mutans
PF-C080 (INIPGLF; Peptide with targeting and/or antimicrobial activity)	A. naeslundii; also recorded: F. nucleatum; also recorded: S. mutans
PF-C034 (HPMPITVRSRKPGPLTAPSEH; Peptide with targeting and/or antimicrobial activity)	S. mutans; also recorded: E. coli
PF-792 (ALHASGIQAI; Peptide with targeting and/or antimicrobial activity)	S. mutans
PF-C045 (FREGMGWPLSNEGSPTAPLPKHRNQV; Peptide with targeting and/or antimicrobial activity)	A. naeslundii; also recorded: T. denticola
PF-765 (YLYWEVEHKPIIAKRDAYYAQLRKQKEIEEGA; Peptide with targeting and/or antimicrobial activity)	S. epidermidis and M. luteus and E. coli and MRSA and E. faecalis and C. jeikeium
PF-S029 (TSDTQSQSPWLFDNADIVNIYPVQLMHSSDND; Peptide with targeting and/or antimicrobial activity)	M. luteus; also recorded: P. mirabilis; also recorded: E. coli; also recorded: C. albicans; also recorded: C. jeikeium; also recorded: C. jejuni
